Reference: PubChem BioAssay AID2060503 (Molecular Pharmacology Branch, DTP, NCI, 2025)

Tested on: 817829-284-R-J1-PDC complex spheroids, viability
Assay: Anticancer human tumor 817829-284-R-J1-PDC patient-derived colon adenocarcinoma cell line growth inhibition [GQUAD]
Conditions: for IC50: curve of first compound; for viability, T/C: stronger effect = lower value
How it was run: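 Multi-cell-type spheroids of tumor cells with HUVEC and mesenchymal stem cells, treated with drug combinations. Concentrations descend in half-log steps from near clinical Cmax, or from 10 microM where Cmax is unknown; viability read-out.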

[1] = second compound 0.0316 µM, first compound 0.0316 µM
[2] = second compound 0.0316 µM, first compound 0.1 µM
[3] = second compound 0.0316 µM, first compound 0.316 µM
[4] = second compound 0.0316 µM, first compound 1 µM
[5] = second compound 0.0316 µM, first compound 3.16 µM
[6] = second compound 0.0316 µM, first compound 10 µM
[7] = second compound 0.1 µM, first compound 0.0316 µM
[8] = second compound 0.1 µM, first compound 0.1 µM
[9] = second compound 0.1 µM, first compound 0.316 µM
[10] = second compound 0.1 µM, first compound 1 µM
[11] = second compound 0.1 µM, first compound 3.16 µM
[12] = second compound 0.1 µM, first compound 10 µM
[13] = second compound 0.316 µM, first compound 0.0316 µM
[14] = second compound 0.316 µM, first compound 0.1 µM
[15] = second compound 0.316 µM, first compound 0.316 µM
[16] = second compound 0.316 µM, first compound 1 µM
[17] = second compound 0.316 µM, first compound 3.16 µM
[18] = second compound 0.316 µM, first compound 10 µM
[19] = second compound 1 µM, first compound 0.0316 µM
[20] = second compound 1 µM, first compound 0.1 µM
[21] = second compound 1 µM, first compound 0.316 µM
[22] = second compound 1 µM, first compound 1 µM
[23] = second compound 1 µM, first compound 3.16 µM
[24] = second compound 1 µM, first compound 10 µM
[25] = second compound 3.16 µM, first compound 0.0316 µM
[26] = second compound 3.16 µM, first compound 0.1 µM
[27] = second compound 3.16 µM, first compound 0.316 µM
[28] = second compound 3.16 µM, first compound 1 µM
[29] = second compound 3.16 µM, first compound 3.16 µM
[30] = second compound 3.16 µM, first compound 10 µM
[31] = second compound 10 µM, first compound 0.0316 µM
[32] = second compound 10 µM, first compound 0.1 µM
[33] = second compound 10 µM, first compound 0.316 µM
[34] = second compound 10 µM, first compound 1 µM
[35] = second compound 10 µM, first compound 3.16 µM
[36] = second compound 10 µM, first compound 10 µM
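Further: spheroids exposed to agents for 7 days before readout.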
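Wherever viability, T/C is given: percent viability relative to DMSO vehicle control taken as 100%.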

With `COc1ccc([C@@H](O)c2cc(-c3ncnc4cc(N5CCOCC5)ccc34)c(F)cc2Cl)nn1` + Cc1cnc(CNC(=O)c2c(=O)c3ccc(N4CCCN(C)CC4)nc3n3c2sc2ccccc23)cn1 the IC50 (second compound 0.0316 µM) was 0.239 µM, the IC50 (second compound 0.1 µM) was < 0.0316 µM and the IC50 (second compound 0.316 µM) was < 0.0316 µM. For the same molecule, the IC50 (second compound 1 µM) was < 0.0316 µM, the IC50 (second compound 3.16 µM) was < 0.0316 µM and the IC50 (second compound 10 µM) was < 0.0316 µM. It also gave a viability, T/C [1] of 81.7%, a viability, T/C [2] of 75.5% and a viability, T/C [3] of 41%. It also gave a viability, T/C [4] of 31.2%, a viability, T/C [5] of 27.9% and a viability, T/C [6] of 20.9%. For the same molecule, the viability, T/C [7] was 42%, the viability, T/C [8] was 37.5% and the viability, T/C [9] was 31.9%. For the same molecule, the viability, T/C [10] was 24.2%, the viability, T/C [11] was 24.2% and the viability, T/C [12] was 19.3%. The viability, T/C [13] was 27.7%, the viability, T/C [14] was 29.7% and the viability, T/C [15] was 24%. The viability, T/C [16] was 22%, the viability, T/C [17] was 22.8% and the viability, T/C [18] was 18%. For the same molecule, the viability, T/C [19] was 25.1%, the viability, T/C [20] was 25.6% and the viability, T/C [21] was 25.1%. It also gave a viability, T/C [22] of 17.7%, a viability, T/C [23] of 18.2% and a viability, T/C [24] of 12.7%. The viability, T/C [25] was 21.2%, the viability, T/C [26] was 22.7% and the viability, T/C [27] was 21.6%. The viability, T/C [28] was 17%, the viability, T/C [29] was 15% and the viability, T/C [30] was 8.95%. For the same molecule, the viability, T/C [31] was 0.12%, the viability, T/C [32] was 0.16% and the viability, T/C [33] was 0.18%. The viability, T/C [34] was 0.23%, the viability, T/C [35] was 0.2% and the viability, T/C [36] was 0.19%.

`Cc1cccc(N(C)C(=O)C2C(O)CCN2c2nc(C)cc(C(F)(F)F)c2C#N)c1` (stereo unspecified) + Cc1[nH]c2ccc(F)cc2c1-c1nc2c3cccnc3c3ncccc3c2[nH]1 was tested, and the IC50 (second compound 0.0316 µM) was > 10 µM, the IC50 (second compound 0.1 µM) was > 10 µM and the IC50 (second compound 0.316 µM) was > 10 µM. For the same molecule, the IC50 (second compound 1 µM) was > 10 µM, the IC50 (second compound 3.16 µM) was > 10 µM and the IC50 (second compound 10 µM) was > 10 µM. For the same molecule, the viability, T/C [1] was 103%, the viability, T/C [2] was 86.2% and the viability, T/C [3] was 99.9%. For the same molecule, the viability, T/C [4] was 78%, the viability, T/C [5] was 97.6% and the viability, T/C [6] was 95.3%. For the same molecule, the viability, T/C [7] was 78.9%, the viability, T/C [8] was 97.7% and the viability, T/C [9] was 89.7%. For the same molecule, the viability, T/C [10] was 102%, the viability, T/C [11] was 101% and the viability, T/C [12] was 105%. The viability, T/C [13] was 90.9%, the viability, T/C [14] was 116% and the viability, T/C [15] was 99.3%. The viability, T/C [16] was 115%, the viability, T/C [17] was 111% and the viability, T/C [18] was 100%. It also gave a viability, T/C [19] of 96.6%, a viability, T/C [20] of 103% and a viability, T/C [21] of 106%. For the same molecule, the viability, T/C [22] was 98.7%, the viability, T/C [23] was 100% and the viability, T/C [24] was 90%. It also gave a viability, T/C [25] of 94.9%, a viability, T/C [26] of 96.1% and a viability, T/C [27] of 82.5%. For the same molecule, the viability, T/C [28] was 99.2%, the viability, T/C [29] was 98.2% and the viability, T/C [30] was 96.7%. For the same molecule, the viability, T/C [31] was 83.3%, the viability, T/C [32] was 96.4% and the viability, T/C [33] was 96.4%. It also gave a viability, T/C [34] of 55.3%, a viability, T/C [35] of 82.6% and a viability, T/C [36] of 63.2%.

`COc1ncnc(C2CC2)c1-c1ncc2cnn(Cc3ccc(-c4nc(C(F)(F)F)cn4C(C)C)cc3)c2n1` + CN(C)c1ccc(Nc2c3ccc(NC(=O)CCN4CCCC4)cc3nc3cc(NC(=O)CCN4CCCC4)ccc23)cc1 was tested, and the IC50 (second compound 0.0316 µM) was > 10 µM, the IC50 (second compound 0.1 µM) was > 10 µM and the IC50 (second compound 0.316 µM) was > 10 µM. The IC50 (second compound 1 µM) was > 10 µM, the IC50 (second compound 3.16 µM) was > 10 µM and the IC50 (second compound 10 µM) was 4.43 µM. For the same molecule, the viability, T/C [1] was 102%, the viability, T/C [2] was 119% and the viability, T/C [3] was 106%. It also gave a viability, T/C [4] of 107%, a viability, T/C [5] of 108% and a viability, T/C [6] of 115%. For the same molecule, the viability, T/C [7] was 100%, the viability, T/C [8] was 123% and the viability, T/C [9] was 104%. For the same molecule, the viability, T/C [10] was 105%, the viability, T/C [11] was 111% and the viability, T/C [12] was 114%. For the same molecule, the viability, T/C [13] was 100%, the viability, T/C [14] was 118% and the viability, T/C [15] was 102%. For the same molecule, the viability, T/C [16] was 107%, the viability, T/C [17] was 105% and the viability, T/C [18] was 119%. For the same molecule, the viability, T/C [19] was 107%, the viability, T/C [20] was 112% and the viability, T/C [21] was 115%. The viability, T/C [22] was 104%, the viability, T/C [23] was 104% and the viability, T/C [24] was 114%. For the same molecule, the viability, T/C [25] was 106%, the viability, T/C [26] was 103% and the viability, T/C [27] was 100%. For the same molecule, the viability, T/C [28] was 93.2%, the viability, T/C [29] was 103% and the viability, T/C [30] was 97.5%. It also gave a viability, T/C [31] of 114%, a viability, T/C [32] of 108% and a viability, T/C [33] of 91.6%. The viability, T/C [34] was 95.3%, the viability, T/C [35] was 53.8% and the viability, T/C [36] was 31.1%.
